Measurements reported in ChEMBL document CHEMBL2417452, “Psammaplysin F: a unique inhibitor of bacterial chromosomal partitioning” (Bioorg Med Chem Lett, 2013).

What was measured:
[1] = tested on: Staphylococcus aureus; experiment: Disruption of plasma membrane integrity in Staphylococcus aureus 1H assessed as extracellular ATP release at 20 uM after 15 to 120 mins by BacTiter-Glo microbial assay relative to control; type: functional
[2] = tested on: Staphylococcus aureus; experiment: Antibacterial activity against methicillin-resistant Staphylococcus aureus USA-300 assessed as growth inhibition at 50 uM after 5 hrs by BacTiter-Glo microbial assay relative to control; type: functional
[3] = tested on: Staphylococcus aureus; experiment: Antibacterial activity against methicillin-resistant Staphylococcus aureus MW2 assessed as growth inhibition at 50 uM after 5 hrs by BacTiter-Glo microbial assay relative to control; type: functional
[4] = tested on: Staphylococcus aureus; experiment: Antibacterial activity against methicillin-resistant Staphylococcus aureus USA-300 after 20 to 24 hrs by two-fold broth microdilution method; type: functional, organism-based
[5] = tested on: Bacillus cereus; experiment: Antibacterial activity against Bacillus cereus NCTC 7464 after 20 to 24 hrs by two-fold broth microdilution method; type: functional, organism-based
[6] = tested on: Staphylococcus aureus; experiment: Antibacterial activity against methicillin-resistant Staphylococcus aureus MW2 after 20 to 24 hrs by two-fold broth microdilution method; type: functional, organism-based
[7] = tested on: Enterococcus faecalis; experiment: Antibacterial activity against Enterococcus faecalis NCTC 775 after 20 to 24 hrs by two-fold broth microdilution method; type: functional, organism-based
[8] = tested on: Staphylococcus aureus; experiment: Antibacterial activity against Staphylococcus aureus 1H after 20 to 24 hrs by two-fold broth microdilution method; type: functional, organism-based
[9] = tested on: Staphylococcus aureus; experiment: Antibacterial activity against Staphylococcus aureus NCTC 6571 after 20 to 24 hrs by two-fold broth microdilution method; type: functional, organism-based
[10] = tested on: Salmonella typhimurium; experiment: Antibacterial activity against Salmonella typhimurium assessed as growth inhibition at 50 uM after 5 hrs by BacTiter-Glo microbial assay relative to control; type: functional; conditions: Salmonella enterica subsp. enterica serovar Typhimurium
[11] = tested on: Pseudomonas aeruginosa; experiment: Antibacterial activity against Pseudomonas aeruginosa PAO1 assessed as growth inhibition at 50 uM after 5 hrs by BacTiter-Glo microbial assay relative to control; type: functional
[12] = tested on: Klebsiella pneumoniae; experiment: Antibacterial activity against Klebsiella pneumoniae NCIB 8805 assessed as growth inhibition at 50 uM after 5 hrs by BacTiter-Glo microbial assay relative to control; type: functional
[13] = tested on: Escherichia coli; experiment: Antibacterial activity against Escherichia coli assessed as growth inhibition at 50 uM after 5 hrs by BacTiter-Glo microbial assay relative to control; type: functional
[14] = tested on: Bacillus cereus; experiment: Antibacterial activity against Bacillus cereus NCTC 7464 assessed as growth inhibition at 50 uM after 5 hrs by BacTiter-Glo microbial assay relative to control; type: functional
[15] = tested on: Enterococcus faecalis; experiment: Antibacterial activity against Enterococcus faecalis NCTC 775 assessed as growth inhibition at 50 uM after 5 hrs by BacTiter-Glo microbial assay relative to control; type: functional
[16] = tested on: Staphylococcus aureus; experiment: Antibacterial activity against penicillin-resistant Staphylococcus aureus 1H assessed as growth inhibition at 50 uM after 5 hrs by BacTiter-Glo microbial assay relative to control; type: functional
[17] = tested on: Staphylococcus aureus; experiment: Antibacterial activity against Staphylococcus aureus NCTC 6571 assessed as growth inhibition at 50 uM after 5 hrs by BacTiter-Glo microbial assay relative to control; type: functional

| Compound | fold change (FC) [1] | growth inhibition (GI) [2] | growth inhibition (GI) [3] | MIC [4] | MIC [5] | MIC [6] | MIC [7] | MIC [8] | MIC [9] | growth inhibition (GI) [10] | growth inhibition (GI) [11] | growth inhibition (GI) [12] | growth inhibition (GI) [13] | growth inhibition (GI) [14] | growth inhibition (GI) [15] | growth inhibition (GI) [16] | growth inhibition (GI) [17] |
| --- | --- | --- | --- | --- | --- | --- | --- | --- | --- | --- | --- | --- | --- | --- | --- | --- | --- |
| COC1=C(Br)C[C@]2(OC=C1Br)ON=C(C(=O)NCCCOc1c(Br)cc(CC[N+](C)(C)C)cc1Br)[C@@H]2O.O=C([O-])C(F)(F)F | 2 |  |  |  |  |  |  |  |  |  |  |  |  |  |  |  |  |
| GENTAMICIN |  | 90% | 93% | 3.1 µM | 1.6 µM | 1.6 µM | 25 µM | 1.6 µM | 0.8 µM | 82% | 86% | 83% | 87% | 82% | 77% | 89% | 95% |
